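48-hour exposure; five concentrations; linearly interpolated endpoints. TGI: concentration producing complete growth inhibition.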
Legend:
Test in all cases: inhibition of tumour cell growth, NCI panel, 48 h
PC-3 prostate = test system: PC-3 prostate
OVCAR-4 ovarian = test system: OVCAR-4 ovarian
HCT-116 colon = test system: HCT-116 colon
SNB-19 CNS = test system: SNB-19 CNS
MCF7 breast = test system: MCF7 breast
MOLT-4 leukemia = test system: MOLT-4 leukemia
SF-268 CNS = test system: SF-268 CNS
M14 melanoma = test system: M14 melanoma
RXF 393 renal = test system: RXF 393 renal
HT29 colon = test system: HT29 colon
OVCAR-5 ovarian = test system: OVCAR-5 ovarian
SR leukemia = test system: SR leukemia
COLO 205 colon = test system: COLO 205 colon
SNB-75 CNS = test system: SNB-75 CNS
OVCAR-8 ovarian = test system: OVCAR-8 ovarian
MDA-MB-435 = test system: MDA-MB-435
SK-MEL-5 melanoma = test system: SK-MEL-5 melanoma
A498 renal = test system: A498 renal
MDA-N = test system: MDA-N
SK-MEL-2 melanoma = test system: SK-MEL-2 melanoma
CAKI-1 renal = test system: CAKI-1 renal
TK-10 renal = test system: TK-10 renal
NCI-H226 lung = test system: NCI-H226 lung
RPMI-8226 leukemia = test system: RPMI-8226 leukemia
LOX IMVI melanoma = test system: LOX IMVI melanoma
T-47D breast = test system: T-47D breast
UO-31 renal = test system: UO-31 renal
SW-620 colon = test system: SW-620 colon
KM12 colon = test system: KM12 colon
A549 NSCLC = test system: A549 NSCLC
EKVX NSCLC = test system: EKVX NSCLC
SF-295 CNS = test system: SF-295 CNS
IGROV1 ovarian = test system: IGROV1 ovarian
MDA-MB-231 breast = test system: MDA-MB-231 breast
SK-MEL-28 melanoma = test system: SK-MEL-28 melanoma
SN12C renal = test system: SN12C renal
HOP-62 NSCLC = test system: HOP-62 NSCLC
ACHN renal = test system: ACHN renal
OVCAR-3 ovarian = test system: OVCAR-3 ovarian
BT-549 breast = test system: BT-549 breast
UACC-62 melanoma = test system: UACC-62 melanoma
HS 578T breast = test system: HS 578T breast
NCI-H23 lung = test system: NCI-H23 lung
HOP-92 NSCLC = test system: HOP-92 NSCLC
NCI-H460 lung = test system: NCI-H460 lung
HCC-2998 colon = test system: HCC-2998 colon
NCI/ADR-RES ovarian = test system: NCI/ADR-RES ovarian
U251 CNS = test system: U251 CNS
NCI-H522 lung = test system: NCI-H522 lung
SF-539 CNS = test system: SF-539 CNS
UACC-257 melanoma = test system: UACC-257 melanoma
SK-OV-3 ovarian = test system: SK-OV-3 ovarian
HL-60(TB) leukemia = test system: HL-60(TB) leukemia
786-0 renal = test system: 786-0 renal
DU-145 prostate = test system: DU-145 prostate
HCT-15 colon = test system: HCT-15 colon
MALME-3M melanoma = test system: MALME-3M melanoma
CCRF-CEM leukemia = test system: CCRF-CEM leukemia
K-562 leukemia = test system: K-562 leukemia

Measured: TGI

O=C(CN1C(=O)c2ccccc2C1=O)C(O)CN1C(=O)c2ccccc2C1=O (centres undefined)
88.1 µM: SF-268 CNS
41.9 µM: HOP-62 NSCLC
39.8 µM: SNB-75 CNS
91.5 µM: U251 CNS
50.5 µM: MDA-MB-231 breast
99.8 µM: SF-295 CNS
49.3 µM: ACHN renal
not listed: MALME-3M melanoma | CCRF-CEM leukemia | K-562 leukemia
> 100 µM: all other assays above

O=C(/C=C(\O)c1ccc(Cl)cc1)C(=O)NN=C(c1ccccc1)c1ccccc1
97.6 µM: OVCAR-8 ovarian
74.4 µM: COLO 205 colon
85.3 µM: HS 578T breast
49 µM: NCI-H522 lung
98.5 µM: CCRF-CEM leukemia
90.4 µM: UO-31 renal
50.3 µM: NCI/ADR-RES ovarian
31.3 µM: NCI-H460 lung
95.1 µM: MOLT-4 leukemia
47.2 µM: A498 renal
65.1 µM: MDA-MB-231 breast
not listed: RPMI-8226 leukemia | LOX IMVI melanoma | SW-620 colon | SK-MEL-28 melanoma | HOP-92 NSCLC | HL-60(TB) leukemia
> 100 µM: all other assays above

Source: PubChem BioAssay (NCI)
